Experimental data reported in article PMC7293010, “DXO/Rai1 enzymes remove 5′-end FAD and dephospho-CoA caps on RNAs” (Nucleic Acids Research, 2020).

Columns and labels:
[1] = target: T1, mDXO (Mus musculus, UniProt O70348, E192S/E234Q/E253Q); assay: X-ray crystal structure, crystal soaked in […] CaCl2 for […] h, then in […] ligand for […] h; assay type: binding; settings: 1.6 Å; active site; pH 6.8, 20°C
T1 construct: gene Dxo; full-length, His tag, pET28a, E. coli BL21 (DE3) Rosetta, Ni-NTA and gel filtration; residues 1-26 with His tag and 385-397 not seen in density
T1 sequence (O70348 1-397 E192S/E234Q/E253Q): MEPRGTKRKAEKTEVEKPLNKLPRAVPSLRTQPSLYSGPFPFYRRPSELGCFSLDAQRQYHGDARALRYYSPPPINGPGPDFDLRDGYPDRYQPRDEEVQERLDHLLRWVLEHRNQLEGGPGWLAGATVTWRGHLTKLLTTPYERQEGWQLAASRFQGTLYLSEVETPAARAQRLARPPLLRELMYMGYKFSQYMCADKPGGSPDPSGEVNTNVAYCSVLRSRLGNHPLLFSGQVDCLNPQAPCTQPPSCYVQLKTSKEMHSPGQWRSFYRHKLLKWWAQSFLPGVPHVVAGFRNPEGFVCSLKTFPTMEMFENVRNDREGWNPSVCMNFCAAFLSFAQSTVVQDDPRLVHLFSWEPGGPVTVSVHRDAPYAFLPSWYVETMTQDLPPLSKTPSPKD

[2] = target: T2, SpRai1 (Schizosaccharomyces pombe, UniProt O13836); assay: X-ray crystal structure, crystal soaked […] h in […] ligand; assay type: binding; settings: 1.9 Å; two magnesium ions observed; active site
T2 construct: gene din1; full-length, pET28a (for crystallization), E. coli BL21 (DE3) Rosetta, Ni-NTA and gel filtration
T2 sequence (O13836 1-352): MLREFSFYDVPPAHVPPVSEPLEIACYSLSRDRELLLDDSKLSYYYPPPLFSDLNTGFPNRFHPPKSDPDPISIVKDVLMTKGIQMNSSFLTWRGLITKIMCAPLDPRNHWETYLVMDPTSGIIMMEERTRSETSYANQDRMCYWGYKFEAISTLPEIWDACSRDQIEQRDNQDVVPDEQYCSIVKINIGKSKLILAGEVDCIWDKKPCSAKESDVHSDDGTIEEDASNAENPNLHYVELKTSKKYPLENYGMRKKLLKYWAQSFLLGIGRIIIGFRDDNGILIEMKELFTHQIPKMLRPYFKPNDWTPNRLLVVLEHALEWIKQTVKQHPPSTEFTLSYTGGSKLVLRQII

Compound | X-ray crystal structure, crystal soaked in 20 mM CaCl2 for 1 h, then in 10 mM li [1] | X-ray crystal structure, crystal soaked 1 h in 10 mM ligand [2]
CC(C)(COP(=O)(O)OP(=O)(O)OC[C@H]1O[C@@H](n2cnc3c(N)ncnc32)[C@H](O)[C@@H]1OP(=O)(O)O)[C@@H](O)C(=O)NCCC(=O)NCCS [CoA] | crystal structure of the E192S/E234Q/E253Q mutant of mDXO in complex with CoA | 
Cc1cc2nc3c(=O)[nH]c(=O)nc-3n(C[C@H](O)[C@H](O)[C@H](O)COP(=O)(O)OP(=O)(O)OC[C@H]3O[C@@H](n4cnc5c(N)ncnc54)[C@H](O)[C@@H]3OP(=O)(O)O)c2cc1C [3′-FADP] |  | good-quality electron density for FADP in complex with wild-type SpRai1
